Results reported in ChEMBL document CHEMBL1201862, “PubChem BioAssay data set” (2004).
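Values below derive from 48-hour exposures of cells grown in 96-well plates, with endpoints linearly interpolated between the two concentrations bracketing the appropriate inhibition level. At the GI50, growth is halved.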 The source made the active and inactive calls. Rule as the data show it: active = GI50 up to about 1.1 µM and inactive = higher.

What was measured:
Assay in all cases: NCI tumour cell line growth inhibition, 48 h
786-0 = tested on: 786-0
A498 = tested on: A498
A549 = tested on: A549
ACHN = tested on: ACHN
CAKI-1 = tested on: CAKI-1
CCRF-CEM = tested on: CCRF-CEM
COLO 205 = tested on: COLO 205
DLD-1 = tested on: DLD-1
EKVX = tested on: EKVX
HCC 2998 = tested on: HCC 2998
HCT-116 = tested on: HCT-116
HCT-15 = tested on: HCT-15
HL-60 = tested on: HL-60
HOP-18 = tested on: HOP-18
HOP-62 = tested on: HOP-62
HOP-92 = tested on: HOP-92
HT-29 = tested on: HT-29
IGROV-1 = tested on: IGROV-1
K562 = tested on: K562
KM12 = tested on: KM12
LOX IMVI = tested on: LOX IMVI
LXFL 529 = tested on: LXFL 529
M14 = tested on: M14
M19-MEL = tested on: M19-MEL
MOLT-4 = tested on: MOLT-4
Malme-3M = tested on: Malme-3M
NCI-H226 = tested on: NCI-H226
NCI-H23 = tested on: NCI-H23
NCI-H460 = tested on: NCI-H460
NCI-H522 = tested on: NCI-H522
OVCAR-4 = tested on: OVCAR-4
OVCAR-5 = tested on: OVCAR-5
OVCAR-8 = tested on: OVCAR-8
RPMI-8226 = tested on: RPMI-8226
SF-268 = tested on: SF-268
SF-295 = tested on: SF-295
SF-539 = tested on: SF-539
SK-MEL-28 = tested on: SK-MEL-28
SK-MEL-2 = tested on: SK-MEL-2
SK-MEL-5 = tested on: SK-MEL-5
SK-OV-3 = tested on: SK-OV-3
SN12C = tested on: SN12C
SNB-75 = tested on: SNB-75
SNB-78 = tested on: SNB-78
SR = tested on: SR
SW-620 = tested on: SW-620
TK-10 = tested on: TK-10
U-251 = tested on: U-251
UACC-257 = tested on: UACC-257
UACC-62 = tested on: UACC-62
UO-31 = tested on: UO-31
XF498 = tested on: XF498

CCOC(=O)/C(=C/c1ccc(Cl)cc1)N(CC)CC
GI50 (786-0): > 100 µM (inactive) | GI50 (A498): > 100 µM (inactive) | GI50 (A549): 90.4 µM (inactive) | GI50 (ACHN): > 100 µM (inactive) | GI50 (CAKI-1): > 100 µM (inactive) | GI50 (CCRF-CEM): > 100 µM (inactive) | GI50 (COLO 205): > 100 µM (inactive) | GI50 (DLD-1): > 100 µM (inactive) | GI50 (EKVX): > 100 µM (inactive) | GI50 (HCC 2998): > 100 µM (inactive) | GI50 (HCT-116): > 100 µM (inactive) | GI50 (HCT-15): > 100 µM | GI50 (HL-60): > 100 µM (inactive) | GI50 (HOP-18): > 100 µM (inactive) | GI50 (HOP-62): > 100 µM (inactive) | GI50 (HOP-92): 74.1 µM (inactive) | GI50 (HT-29): > 100 µM (inactive) | GI50 (IGROV-1): > 100 µM (inactive) | GI50 (K562): > 100 µM (inactive) | GI50 (KM12): > 100 µM (inactive) | GI50 (LOX IMVI): > 100 µM (inactive) | GI50 (LXFL 529): > 100 µM (inactive) | GI50 (M14): > 100 µM (inactive) | GI50 (M19-MEL): > 100 µM (inactive) | GI50 (MOLT-4): > 100 µM (inactive) | GI50 (Malme-3M): > 100 µM (inactive) | GI50 (NCI-H226): > 100 µM (inactive) | GI50 (NCI-H23): > 100 µM (inactive) | GI50 (NCI-H460): > 100 µM (inactive) | GI50 (NCI-H522): 89.1 µM (inactive) | GI50 (OVCAR-4): > 100 µM (inactive) | GI50 (OVCAR-5): > 100 µM (inactive) | GI50 (OVCAR-8): > 100 µM (inactive) | GI50 (RPMI-8226): > 100 µM (inactive) | GI50 (SF-268): > 100 µM (inactive) | GI50 (SF-295): > 100 µM (inactive) | GI50 (SF-539): > 100 µM (inactive) | GI50 (SK-MEL-28): > 100 µM (inactive) | GI50 (SK-MEL-2): > 100 µM (inactive) | GI50 (SK-MEL-5): > 100 µM (inactive) | GI50 (SK-OV-3): > 100 µM (inactive) | GI50 (SN12C): > 100 µM (inactive) | GI50 (SNB-75): > 100 µM (inactive) | GI50 (SNB-78): > 100 µM (inactive) | GI50 (SR): > 100 µM (inactive) | GI50 (SW-620): > 100 µM (inactive) | GI50 (TK-10): > 100 µM (inactive) | GI50 (U-251): > 100 µM (inactive) | GI50 (UACC-257): > 100 µM (inactive) | GI50 (UACC-62): > 100 µM (inactive) | GI50 (UO-31): > 100 µM (inactive) | GI50 (XF498): > 100 µM (inactive)
